Assays:
Slc12a8 [1] = target: T1, Slc12a8 (Mus musculus, UniProt Q8VI23); assay: Radiolabeled NMN uptake in Slc12a8-OE and control NIH3T3 cells; type: cell-based; conditions: 25 μM, 37° C., 3 and 5 min time points, Slc12a8-OE cells compared to control cells
T1 construct: NIH3T3 cells were transfected with 5 μg of pCXN2 carrying the full-length Slc12a8 cDNA (Slc12a8-OE); expressed in transfected cells
T1 sequence (Q8VI23 1-705): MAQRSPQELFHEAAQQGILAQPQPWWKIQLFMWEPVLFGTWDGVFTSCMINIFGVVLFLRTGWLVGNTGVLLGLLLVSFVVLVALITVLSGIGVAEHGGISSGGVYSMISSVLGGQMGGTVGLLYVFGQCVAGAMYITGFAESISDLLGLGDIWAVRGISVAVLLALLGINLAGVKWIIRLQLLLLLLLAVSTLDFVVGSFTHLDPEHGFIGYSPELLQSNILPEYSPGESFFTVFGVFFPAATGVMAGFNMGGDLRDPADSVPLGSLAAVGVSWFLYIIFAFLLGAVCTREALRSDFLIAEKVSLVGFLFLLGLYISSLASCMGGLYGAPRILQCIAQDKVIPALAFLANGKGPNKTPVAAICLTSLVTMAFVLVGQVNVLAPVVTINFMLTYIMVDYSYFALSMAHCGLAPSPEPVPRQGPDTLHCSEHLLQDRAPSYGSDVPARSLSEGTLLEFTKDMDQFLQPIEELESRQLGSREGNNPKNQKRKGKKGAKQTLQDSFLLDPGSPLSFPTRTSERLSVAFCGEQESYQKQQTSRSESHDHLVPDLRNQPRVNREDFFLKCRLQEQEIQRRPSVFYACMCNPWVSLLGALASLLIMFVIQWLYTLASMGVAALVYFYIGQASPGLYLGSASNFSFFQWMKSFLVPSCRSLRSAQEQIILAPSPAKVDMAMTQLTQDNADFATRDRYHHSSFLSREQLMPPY
Experimental: NMN uptake analyses with radiolabeled NMN. Control and Slc12a8-OE NIH3T3 cells were harvested by centrifugation (400×g, 5 min), washed once in HBSS, and incubated at 37° C. in HBSS [pH 7.5] (5×10^6 cells/ml) containing 100 nM 3H-β-Nicotinamide mononucleotide (9 Ci/mmol; Moravek Biochemicals, CA) and unlabeled NMN to make the final concentration 25 μM. At the designated time points (1, 3, 5 and 10 minutes), aliquots of the cells (100 μl) were collected and placed in 1.5-ml microcentrifuge tubes containing silicone-mineral oil (density, 1.015; Sigma-Aldrich) on the top of 2 M potassium hydroxide solution, followed by centrifugation at 16,000×g for 30s. Cells were separated from the buffer and pelleted through the silicone-mineral oil layer. The radioactivity in these cell pellets was determined by a liquid scintillation counter. For calculating Km and Vmax, the same conditions were used as described above, but with various total concentrations of NMN, ranging from 1 μM to 100 μM. At the 4-min time point, 100 μl of cell suspension was collected and pelleted in the same way described above. The radioactivity in cell pellets was determined by a liquid scintillation counter. The radioactivity measured in control NIH3T3 cells was subtracted to calculate Slc12a8-specific NMN uptake in Slc12a8-OE NIH3T3 cells.
Uptake of NMN was measured as described in methods under “NMN uptake analyses with radiolabeled NMN” using 25 μM ^3H-NMN at 37° C. in control and Slc12a8-OE NIH3T3 cells over 10 min in Hanks' buffer [ph7.5] with Mg2+ and Ca2+ (n=12; analyzed by ANOVA with Sidak's test). […] This Km is qualitatively consistent with a detected range of NMN concentrations in mouse plasma and erythrocytes (Revollo, J. R. et al., Cell Metab., 6, 363-375, 2007; Ramsey, K. M., et al., Science, 324, 651-654, 2009; Yamada, K., et al., Anal. Biochem., 352, 282-285, 2006).

Slc12a8 [2] = target: T1, Slc12a8; assay: 3H-NMN uptake and displacement in Slc12a8-OE proteoliposomes; type: biochemical; conditions: for displacement of 3H-NMN: 150 μM cold compound, 150 nM 3H-NMN, 2 min
Experimental: Proteoliposome experiments. Proteoliposome preparation was carried out as previously described (Bruzzone, S., et al., FASEB J., 15, 10-12, 2001). Briefly, 2×10^7 control or Slc12a8-OE NIH3T3 cells were resuspended in 1 ml of lysis buffer (10 mM Tris-HCl, pH 8.3, 150 mM NaCl, 0.3 M sucrose, protease inhibitor cocktail) and disrupted using a homogenizer. The lysate was centrifuged for 10 min at 3,000×g, and the supernatant was collected and centrifuged for 15 min at 100,000×g. The membrane proteins were solubilized with buffer A (10 mM Tris-HCl, pH 8.3, containing 150 mM NaCl and 0.5% n-octyl β-glucopyranoside). Separately, total lipids were extracted from hemoglobin-free erythrocyte membranes (ghosts) as described previously (Franco, L., et al., FASEB J., 12, 1507-1520, 1998). Total lipids from human erythrocyte membranes (3 mg) were dried and resuspended with 600 μl of solubilized membrane proteins (at approximately 0.7 mg/ml protein concentration). The resulting emulsions were sonicated in ice for 1 min and dialyzed against 5 liters of buffer A without n-octyl-β-glucopyranoside (dialysis buffer) for 24 h at 4° C. Proteoliposomes were recovered, centrifuged for 15 min at 100,000×g, resuspended in 900 μl dialysis buffer and passed 5 times through a 30-gauge needle.
To examine the Na+-dependency of Slc12a8, NaCl was replaced with 150 mM LiCl. All steps were carried out at 4° C. Proteoliposomes (30 μl in triplicate for each condition) were incubated for 2, 5 or 10 min at 25° C. in the presence of […] 3H-β-NMN (specific activity, 9.1 Ci/mmole) with or without label-free nucleotides (NMN, NR, NAD, AMP; NAM or NaMN). At the end of incubations, samples were filtered on a glass fiber paper. Filters were washed with 3 ml of dialysis buffer, dried, and counted for radioactivity.
Proteoliposomes were produced by combining the membrane fractions of Slc12a8-OE or control NIH3T3 cells with the phospholipid bilayers derived from deproteinized erythrocyte plasma membrane as described supra using 22 nM, ^3H-NMN at 25° C. in proteoliposomes produced from plasma membrane fractions of Slc12a8-OE and control NIH3T3 cells in transport buffer (n=3; analyzed by one-way ANOVA with Sidak's multiple comparisons test).
In order to determine substrate specificity of Slc12a8, these Slc12a8-OE proteoliposomes were used for displacement experiments with ^3H-NMN and various cold NAD+-related compounds. Uptake of ^3H-NMN (150 nM, 25° C.) was measured at 2 min in Slc12a8-OE proteoliposomes in the presence of 150 μM competing cold compounds (NMN, NR, NAD, AMP, NaMN, and nicotinamide) in transport buffer (n=3, analyzed by ANOVA with Dunnett's test). […] Data are shown as percentages of ^3H-NMN uptake (n=3; IC50 was calculated by non-linear regression analysis).
In these experiments, the sodium ion dependency of Slc12a8 for NMN transport was evaluated using the proteoliposome system.

Slc12a8 gene = assay: Microarray gene expression profiling of FK866-treated primary cultures; type: cell-based, mouse
Experimental: Microarray Analysis. Total RNA was isolated from primary hepatocytes, pancreatic islets, and hippocampal neurospheres, treated with 0.1% DMSO (control) or FK866 (200 nM for primary hepatocytes, and 10 nM for pancreatic islets and hippocampal neurospheres). To determine transcriptional changes induced by FK866 treatment, microarray analyses were conducted using the Illumina Mouse Ref 8 whole genome microarrays (version 2). […] All data were analyzed by the R statistical software package.
Slc12a8 was identified in the section of the Venn diagram in FIG. 1 indicated by an arrow. The Slc12a8 gene belongs to the SLC12 gene family of the electroneutral cation-chloride-coupled co-transporters, and the function of the protein encoded by this gene remains unknown (Hebert, S. C., et al., Pflugers Arch. 447, 580-593, 2004).

Slc12a8 mRNA expression = Slc12a8 mRNA expression by quantitative RT-PCR in cells and ex vivo small intestine explants; type: cell-based, mouse; conditions: FK866 alone; primary hepatocytes, NIH3T3 fibroblasts (24 h), jejunum and ileum explants (4 h)
Experimental: Cell culture and ex vivo small intestine explant culture. […] For Slc12a8 mRNA expression analysis, 2.5×10^5 cells per well were incubated in 6-well plates with DMEM with 1% FBS containing 0.1% DMSO or 100 nM FK866 or 100 nM FK866 plus 100 μM NMN for 24 h. Small intestines from 3-month old B6 male mice were cut into three segments with duodenum/jejunum/ileum length ratios of 1:3:2 (Wang, H. H., et al., Hepatology 45, 998-1006, 2007). […] Cellular and tissue RNA samples were analyzed by quantitative RT-PCR, as described previously (Stein, L. R. & Imai, S., EMBO J., 33, 1321-1340, 2014).
The amounts of adenosine produced were determined by HPLC. […] Silencing efficiencies were evaluated by quantitative RT-PCR.
FIG. 2 illustrates that Slc12a8 is highly expressed in the small intestine and pancreas and moderately in the liver and white adipose tissue of B6 male mice at 3 months of age (n=3 mice). […] Cells were treated with these compounds for 24 h (n=4 mice for hepatocytes treated with DMSO and FK866, and n=3 mice for hepatocytes treated with FK866 and NMN; n=6 for NIH3T3 cells; analyzed using ANOVA with Tukey's test). FIG. 5 illustrates surface and intracellular Slc12a8 protein expression levels were measured by flow cytometry analysis in NIH3T3 cells treated with FK866 or FK866 plus NMN for 48h. […]

3H-β-Nicotinamide mononucleotide [^3H-NMN]
uptake of 3H-NMN (Slc12a8 [1]): significantly enhanced
3H-NMN incorporation (Slc12a8 [2]; 22 nM, 25° C., within 2 min, Slc12a8-OE-derived vs control-derived proteoliposomes): significantly higher levels

Nc1ncnc2c1ncn2[C@@H]1O[C@H](COP(=O)(O)O)[C@@H](O)[C@H]1O [AMP, adenosine monophosphate]
displacement of 3H-NMN (Slc12a8 [2]; 25° C.): very low or negligible displacement

O=C(/C=C/c1cccnc1)NCCCCC1CCN(C(=O)c2ccccc2)CC1 [FK866]
Slc12a8 Z ratio (Slc12a8 gene; hippocampal neurospheres, 10 nM FK866 vs 0.1% DMSO): 4.91
Slc12a8 Z ratio (Slc12a8 gene; pancreatic islets, 10 nM FK866 vs 0.1% DMSO): 1.69
Slc12a8 Z ratio (Slc12a8 gene; primary hepatocytes, 200 nM FK866 vs 0.1% DMSO): 2.06
Slc12a8 expression (Slc12a8 mRNA expression): induced significantly

O=C(O)c1cccnc1 [NA, nicotinic acid]
effect on uptake of 3H-NMN (Slc12a8 [2]; Slc12a8-overexpressing proteoliposomes): able to enhance the uptake

NC(=O)c1ccc[n+]([C@@H]2O[C@H](COP(=O)([O-])OP(=O)(O)OC[C@H]3O[C@@H](n4cnc5c(N)ncnc54)[C@H](O)[C@@H]3O)[C@@H](O)[C@H]2O)c1 [NAD+]
displacement of 3H-NMN (Slc12a8 [2]; 25° C.): very low or negligible displacement

NC(=O)c1ccc[n+]([C@@H]2O[C@H](CO)[C@@H](O)[C@H]2O)c1 [NR, nicotinamide riboside]
displacement of 3H-NMN (Slc12a8 [2]; 25° C.): ~70%
IC50 (Slc12a8 [2]; Slc12a8-OE proteoliposome system): 77.4 ± 10.8 µM

O=C(O)c1ccc[n+]([C@@H]2O[C@H](COP(=O)(O)O)[C@@H](O)[C@H]2O)c1 [NaMN, nicotinic acid mononucleotide]
displacement of 3H-NMN (Slc12a8 [2]; 25° C.): very low or negligible displacement

NC(=O)c1cccnc1 [nicotinamide]
displacement of 3H-NMN (Slc12a8 [2]; 25° C.): very low or negligible displacement
